Biological target: T1, PAN endonuclease domain from influenza A type virus (H1N1) (PAN, residues 1-197) (Influenza A virus, UniProt P03433)
T1 construct: influenza A type virus (H1N1) (PAN, residues 1-197) was cloned; His tag (inferred from pET-28a vector and IMAC purification); made in house; host or cells: E. coli BL21 (DE3)
Format: biochemical
Conditions: ssDNA, 1 h, 37 °C; conivaptan 0–[…], dutasteride 0–1000 μM, rifaximin 0–1000 μM, lurasidone 0–3000 μM (Figure S1)

Row | Compound | inhibition of the endonuclease activity of PAN (in words)
1 | CS(=O)(=O)c1cccc(C[C@H](NC(=O)c2c(Cl)cc3c(c2Cl)CCN(C(=O)c2ccc4ccoc4c2)C3)C(=O)O)c1 [lifitegrast] | inhibitory effect
2 | O=C1[C@@H]2[C@H]3CC[C@H](C3)[C@@H]2C(=O)N1C[C@@H]1CCCC[C@H]1CN1CCN(c2nsc3ccccc23)CC1 [lurasidone] | no inhibition
3 | C[C@]12C=CC(=O)N[C@@H]1CC[C@@H]1[C@@H]2CC[C@]2(C)[C@@H](C(=O)Nc3cc(C(F)(F)F)ccc3C(F)(F)F)CC[C@@H]12 [dutasteride] | no inhibition
4 | CO[C@H]1/C=C/O[C@@]2(C)Oc3c(C)c(O)c4c(O)c(c5c(nc6cc(C)ccn65)c4c3C2=O)NC(=O)/C(C)=C\C=C\[C@H](C)[C@H](O)[C@@H](C)[C@@H](O)[C@@H](C)[C@H](OC(C)=O)[C@@H]1C [rifaximin] | no inhibition
